Values quoted from earlier work, collected in patent publication US20160076057A1, “INHIBITION OF METHANE AND HYDROGEN SULFIDE PRODUCTION IN ANAEROBIC DIGESTER ANIMAL FARMS, LANDFILLS, SEDIMENTS AND SEWER SYSTEMS” (Innovative Environmental Technologies, Inc., priority 2014, published 2016).

How the values were obtained:
non-methanogens = details: Miller and Wolin (2001)
[1] = test system: pure methanogenic bacteria; details: Wolin and Miller (2005)
[2] = test system: F420-dependent NADP oxidoreductase enzyme; details: Sharma et al. (2011); for affinity for the model protein compared to natural ligand F420: 3D model structure, F420 binding cavity
Methanobrevibacter = details: Miller and Wolin (2001)
cellulolytic bacteria = details: Wolin and Miller (2005)

Row | Structure (SMILES) | populations of the non-methanogens (non-methanogens) | growth and activity of pure methanogenic bacteria [1] | affinity for the model protein compared to natural ligand F420 [2] | blocking the activity site for methane production [2] | methane formation (Methanobrevibacter) | concentration that completely inhibited growth (Methanobrevibacter; per ml of culture medium) [nmol/mL] | IC50 (Methanobrevibacter; per ml of culture medium, read-out: concentration giving 50% inhibition of growth) [µM] | effect on cellulolytic bacteria (cellulolytic bacteria)
1 | CC[C@H](C)C(=O)O[C@H]1C[C@@H](C)C=C2C=C[C@H](C)[C@H](CC[C@@H]3C[C@@H](O)CC(=O)O3)[C@H]21 [lovastatin, Lovastatin] | not affected | significantly reduced | more affinity | very effective | significantly inhibited | 10 | 4 | without any negative effect
2 | CC[C@H](C)C(=O)O[C@H]1CCC=C2C=C[C@H](C)[C@H](CC[C@@H]3C[C@@H](O)CC(=O)O3)[C@H]21 [compactin, compactin (mevastatin)] |  |  | more affinity | very effective |  |  |  | 
